Patent publication US7868135B2, “Compositions of lipopeptide antibiotic derivatives and methods of use thereof” (priority 2003, dated 2011)
Like-named read-outs stand apart in the source and are kept apart here. Starred links: 1 amine or outer side, 2 acyl side, 3 side chain; linkers in the order of their positions; H or OH if unused. Positions of bridges follow the written chain, without caps; N, C: chain ends. Non-standard residues stand in square brackets, D forms with d. Residues, ends and D or L forms follow the SMILES beside them. ξ: configuration not given here. *: point of attachment. X6 = CC(NC(=O)C12CC3CC(CC(C3)C1)C2)C(N[*:1])C(=O)[*:2]; X10 = CC(C)=CCC/C(C)=C/C(=O)NC(C)C(N[*:1])C(=O)[*:2]; X11 = CC(NC(=O)CC1CC2CCC1C2)C(N[*:1])C(=O)[*:2]; X42 = CC(NC(=O)CNCc1ccccc1)C(N[*:1])C(=O)[*:2]; X40 = CC(NC(=O)CCN1CCNCC1)C(N[*:1])C(=O)[*:2]; X15 = CC(NC(=O)CCNC(N)=O)C(N[*:1])C(=O)[*:2]; X45 = CCN(CC)CCC(=O)NC(C)C(N[*:1])C(=O)[*:2]; ξAbu(βξ-NH2) = CC(N[*:3])C(N[*:1])C(=O)[*:2]; X21 = CC(=O)SCC(=O)NC(C)C(N[*:1])C(=O)[*:2]; X26 = COC(=O)CC(=O)NC(C)C(N[*:1])C(=O)[*:2]; X38 = CC(NC(=O)CCCN(C)C)C(N[*:1])C(=O)[*:2]; X16 = CCC(=O)C(=O)NC(C)C(N[*:1])C(=O)[*:2]; X24 = C/C=C/C(=O)NC(C)C(N[*:1])C(=O)[*:2]; X20 = CC#CC(=O)NC(C)C(N[*:1])C(=O)[*:2]; X44 = CCNCC(=O)NC(C)C(N[*:1])C(=O)[*:2]; X39 = C=CC(=O)NC(C)C(N[*:1])C(=O)[*:2]; Pentadecanoyl = CCCCCCCCCCCCCCC(=O)*; ξAsp(βξ-Me) = CC(C(=O)O)C(N)C(=O)O; X27 = CCCCCCCC/C=C/CCCCCCCC(=O)*; Pip = O=C(O)[CH]1CCCCN1

Tested on: Staphylococcus aureus (MSSA)
Method in brief: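 Broth microdilution MIC per NCCLS M7-A6 with doubling serial dilutions, in cation-adjusted Mueller-Hinton broth supplemented with 0.625 mM calcium.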

[1] = S. aureus (MSSA), CAMHB supplemented with 0.625 mM calcium, 24 hours at about 37° C., a range = compound tested multiple times

| MIC (24 h) [µg/mL] | Structure (SMILES) | MIC [1] [µg/mL] |
| --- | --- | --- |
| 4 | CCCCCCCCCCCCCCC(=O)NC(CC(=O)O)C(=O)NC1C(=O)N2CCCCC2C(=O)NC(C(C)C(=O)O)C(=O)NC(CC(=O)O)C(=O)NCC(=O)NC(CC(=O)O)C(=O)NCC(=O)NC(C(C)NC(=O)CC2CC3CCC2C3)C(=O)NC(C(C)C)C(=O)N2CCCC2C(=O)NC1C (stereo not drawn) [Compound 208, C15-Amphomycin-9-(2-Norbornaneacetyl)] (Pentadecanoyl-D[ξAbu(βξ-NH2)][Pip][ξAsp(βξ-Me)]DGDG[X11]VP; lactam 2-C; configuration not given here) |  |
|  | CCCCCCCCCCCCCCC(=O)NC(CC(=O)O)C(=O)NC1C(=O)N2CCCCC2C(=O)NC(C(C)C(=O)O)C(=O)NC(CC(=O)O)C(=O)NCC(=O)NC(CC(=O)O)C(=O)NCC(=O)NC(C(C)NC(=O)[C@@H]2CCC(=O)O2)C(=O)NC(C(C)C)C(=O)N2CCCC2C(=O)NC1C (stereo partly drawn) [Compound 210, C15-Amphomycin-9-((S)-(+)-5-Oxo-2-Tetrahydrofurancarbonyl)] | 2 |
| 1 | CCCCCCCCCCCCCCC(=O)NC(CC(=O)O)C(=O)NC1C(=O)N2CCCCC2C(=O)NC(C(C)C(=O)O)C(=O)NC(CC(=O)O)C(=O)NCC(=O)NC(CC(=O)O)C(=O)NCC(=O)NC(C(C)NC(=O)CCNC(N)=O)C(=O)NC(C(C)C)C(=O)N2CCCC2C(=O)NC1C (stereo not drawn) [Compound 212, C15-Amphomycin-9-(Carbamoyl-β-Ala)] (Pentadecanoyl-D[ξAbu(βξ-NH2)][Pip][ξAsp(βξ-Me)]DGDG[X15]VP; lactam 2-C; configuration not given here) |  |
| 2 | C=CC(=O)NC(C)C1NC(=O)CNC(=O)C(CC(=O)O)NC(=O)CNC(=O)C(CC(=O)O)NC(=O)C(C(C)C(=O)O)NC(=O)C2CCCCN2C(=O)C(NC(=O)C(CC(=O)O)NC(=O)CCCCCCCCCCCCCC)C(C)NC(=O)C2CCCN2C(=O)C(C(C)C)NC1=O (stereo not drawn) [Compound 213, C15-Amphomycin-9-Acryl] (Pentadecanoyl-D[ξAbu(βξ-NH2)][Pip][ξAsp(βξ-Me)]DGDG[X39]VP; lactam 2-C; configuration not given here) |  |
| 8 | C/C=C/C(=O)NC(C)C1NC(=O)CNC(=O)C(CC(=O)O)NC(=O)CNC(=O)C(CC(=O)O)NC(=O)C(C(C)C(=O)O)NC(=O)C2CCCCN2C(=O)C(NC(=O)C(CC(=O)O)NC(=O)CCCCCCCCCCCCCC)C(C)NC(=O)C2CCCN2C(=O)C(C(C)C)NC1=O (stereo not drawn) [Compound 218, C15-Amphomycin-9-Crotonyl] (Pentadecanoyl-D[ξAbu(βξ-NH2)][Pip][ξAsp(βξ-Me)]DGDG[X24]VP; lactam 2-C; configuration not given here) |  |
| 2 | CCCCCCCCCCCCCCC(=O)NC(CC(=O)O)C(=O)NC1C(=O)N2CCCCC2C(=O)NC(C(C)C(=O)O)C(=O)NC(CC(=O)O)C(=O)NCC(=O)NC(CC(=O)O)C(=O)NCC(=O)NC(C(C)NC(=O)CCCCCCCCC)C(=O)NC(C(C)C)C(=O)N2CCCC2C(=O)NC1C (centres unmarked) [Compound 220, C15-Amphomycin-9-C10] |  |
| 16 | CCCCCCCCCCCCCCC(=O)NC(CC(=O)O)C(=O)NC1C(=O)N2CCCCC2C(=O)NC(C(C)C(=O)O)C(=O)NC(CC(=O)O)C(=O)NCC(=O)NC(CC(=O)O)C(=O)NCC(=O)NC(C(C)NC(=O)C(=O)CC)C(=O)NC(C(C)C)C(=O)N2CCCC2C(=O)NC1C (stereo not drawn) [Compound 223, C15-Amphomycin-9-(α-Ketobutyl)] (Pentadecanoyl-D[ξAbu(βξ-NH2)][Pip][ξAsp(βξ-Me)]DGDG[X16]VP; lactam 2-C; configuration not given here) |  |
| 8 | CCCCCCCCCCCCCCC(=O)NC(CC(=O)O)C(=O)NC1C(=O)N2CCCCC2C(=O)NC(C(C)C(=O)O)C(=O)NC(CC(=O)O)C(=O)NCC(=O)NC(CC(=O)O)C(=O)NCC(=O)NC(C(C)NC(=O)/C=C(\C)CCC=C(C)C)C(=O)NC(C(C)C)C(=O)N2CCCC2C(=O)NC1C (stereo not drawn) [Compound 224, C15-Amphomycin-9-Geranyl] (Pentadecanoyl-D[ξAbu(βξ-NH2)][Pip][ξAsp(βξ-Me)]DGDG[X10]VP; lactam 2-C; configuration not given here) |  |
| 32 | CC#CC(=O)NC(C)C1NC(=O)CNC(=O)C(CC(=O)O)NC(=O)CNC(=O)C(CC(=O)O)NC(=O)C(C(C)C(=O)O)NC(=O)C2CCCCN2C(=O)C(NC(=O)C(CC(=O)O)NC(=O)CCCCCCCCCCCCCC)C(C)NC(=O)C2CCCN2C(=O)C(C(C)C)NC1=O (stereo not drawn) [Compound 227, C15-Amphomycin-9-(2-Butynyl)] (Pentadecanoyl-D[ξAbu(βξ-NH2)][Pip][ξAsp(βξ-Me)]DGDG[X20]VP; lactam 2-C; configuration not given here) |  |
| 4 | CCCCCCCCCCCCCCC(=O)NC(CC(=O)O)C(=O)NC1C(=O)N2CCCCC2C(=O)NC(C(C)C(=O)O)C(=O)NC(CC(=O)O)C(=O)NCC(=O)NC(CC(=O)O)C(=O)NCC(=O)NC(C(C)NC(=O)C23CC4CC(CC(C4)C2)C3)C(=O)NC(C(C)C)C(=O)N2CCCC2C(=O)NC1C (stereo not drawn) [Compound 232, C15-Amphomycin-9-(1-Adamantanylcarbonyl)] (Pentadecanoyl-D[ξAbu(βξ-NH2)][Pip][ξAsp(βξ-Me)]DGDG[X6]VP; lactam 2-C; configuration not given here) |  |
| 2 | CCCCCCCCCCCCCCC(=O)NC(CC(=O)O)C(=O)NC1C(=O)N2CCCCC2C(=O)NC(C(C)C(=O)O)C(=O)NC(CC(=O)O)C(=O)NCC(=O)NC(CC(=O)O)C(=O)NCC(=O)NC(C(C)NC(=O)CSC(C)=O)C(=O)NC(C(C)C)C(=O)N2CCCC2C(=O)NC1C (stereo not drawn) [Compound 235, C15-Amphomycin-9-(S-Acetylthioglycolyl)] (Pentadecanoyl-D[ξAbu(βξ-NH2)][Pip][ξAsp(βξ-Me)]DGDG[X21]VP; lactam 2-C; configuration not given here) |  |
|  | CCCCCCCCCCCCCCC(=O)NC(CC(=O)O)C(=O)NC1C(=O)N2CCCCC2C(=O)NC(C(C)C(=O)O)C(=O)NC(CC(=O)O)C(=O)NCC(=O)NC(CC(=O)O)C(=O)NCC(=O)NC(C(C)NC(=O)CCCCC(C)=O)C(=O)NC(C(C)C)C(=O)N2CCCC2C(=O)NC1C (centres unmarked) [Compound 237, C15-Amphomycin-9-(6-Oxoheptanoyl)] | 16 |
| 1 to 2 | CCCCCCCC/C=C/CCCCCCCC(=O)NC(C)C1NC(=O)CNC(=O)C(CC(=O)O)NC(=O)CNC(=O)C(CC(=O)O)NC(=O)C(C(C)C(=O)O)NC(=O)C2CCCCN2C(=O)C(NC(=O)C(CC(=O)O)NC(=O)CCCCCCCCCCCCCC)C(C)NC(=O)C2CCCN2C(=O)C(C(C)C)NC1=O (stereo not drawn) [Compound 238, C15-Amphomycin-9-Oleate] (Pentadecanoyl-D[ξAbu(βξ-NH2)][Pip][ξAsp(βξ-Me)]DGDG[ξAbu(βξ-NH2)](X27)VP; lactam 2-C; configuration not given here) |  |
| 1 to 2 | CCCCCCCCCCCCCCC(=O)NC(CC(=O)O)C(=O)NC1C(=O)N2CCCCC2C(=O)NC(C(C)C(=O)O)C(=O)NC(CC(=O)O)C(=O)NCC(=O)NC(CC(=O)O)C(=O)NCC(=O)NC(C(C)NC(=O)CCN2CCNCC2)C(=O)NC(C(C)C)C(=O)N2CCCC2C(=O)NC1C (stereo not drawn) [Compound 241] (Pentadecanoyl-D[ξAbu(βξ-NH2)][Pip][ξAsp(βξ-Me)]DGDG[X40]VP; lactam 2-C; configuration not given here) |  |
| 1 to 2 | CCCCCCCCCCCCCCC(=O)NC(CC(=O)O)C(=O)NC1C(=O)N2CCCCC2C(=O)NC(C(C)C(=O)O)C(=O)NC(CC(=O)O)C(=O)NCC(=O)NC(CC(=O)O)C(=O)NCC(=O)NC(C(C)NC(=O)CCCN(C)C)C(=O)NC(C(C)C)C(=O)N2CCCC2C(=O)NC1C (stereo not drawn) [Compound 242, C15-Amphomycin-9-(N,N′-Dimethyl-GABA)] (Pentadecanoyl-D[ξAbu(βξ-NH2)][Pip][ξAsp(βξ-Me)]DGDG[X38]VP; lactam 2-C; configuration not given here) |  |
| 0.5 to 1 | CCCCCCCCCCCCCCC(=O)NC(CC(=O)O)C(=O)NC1C(=O)N2CCCCC2C(=O)NC(C(C)C(=O)O)C(=O)NC(CC(=O)O)C(=O)NCC(=O)NC(CC(=O)O)C(=O)NCC(=O)NC(C(C)NC(=O)CNCC)C(=O)NC(C(C)C)C(=O)N2CCCC2C(=O)NC1C (stereo not drawn) [Compound 243, C15-Amphomycin-9-(N-Ethyl-Gly)] (Pentadecanoyl-D[ξAbu(βξ-NH2)][Pip][ξAsp(βξ-Me)]DGDG[X44]VP; lactam 2-C; configuration not given here) |  |
| 1 | CCCCCCCCCCCCCCC(=O)NC(CC(=O)O)C(=O)NC1C(=O)N2CCCCC2C(=O)NC(C(C)C(=O)O)C(=O)NC(CC(=O)O)C(=O)NCC(=O)NC(CC(=O)O)C(=O)NCC(=O)NC(C(C)NC(=O)CNCc2ccccc2)C(=O)NC(C(C)C)C(=O)N2CCCC2C(=O)NC1C (stereo not drawn) [Compound 245, C15-Amphomycin-9-(N-Benzyl-Gly)] (Pentadecanoyl-D[ξAbu(βξ-NH2)][Pip][ξAsp(βξ-Me)]DGDG[X42]VP; lactam 2-C; configuration not given here) |  |
| 2 | CCCCCCCCCCCCCCC(=O)NC(CC(=O)O)C(=O)NC1C(=O)N2CCCCC2C(=O)NC(C(C)C(=O)O)C(=O)NC(CC(=O)O)C(=O)NCC(=O)NC(CC(=O)O)C(=O)NCC(=O)NC(C(C)NC(=O)CCN(CC)CC)C(=O)NC(C(C)C)C(=O)N2CCCC2C(=O)NC1C (stereo not drawn) [Compound 246, C15-Amphomycin-9-(N,N-Diethyl-β-Ala)] (Pentadecanoyl-D[ξAbu(βξ-NH2)][Pip][ξAsp(βξ-Me)]DGDG[X45]VP; lactam 2-C; configuration not given here) |  |
| 2 to 4 | CCCCCCCCCCCCCCCCNC(=O)NC(CC(=O)O)C(=O)NC1C(=O)N2CCCCC2C(=O)NC(C(C)C(=O)O)C(=O)NC(CC(=O)O)C(=O)NCC(=O)NC(CC(=O)O)C(=O)NCC(=O)NC(C(C)N)C(=O)NC(C(C)C)C(=O)N2CCCC2C(=O)NC1C (centres unmarked) [Compound 249, CH3—(CH2)15—NH—C(═O)-Amphomycin] |  |

| Structure (SMILES) | MIC (24 h) [µg/mL] | MIC [1] [µg/mL] |
| --- | --- | --- |
| CCCCCCCCCCCCCCC(=O)NC(CC(=O)O)C(=O)NC1C(=O)N2CCCCC2C(=O)NC(C(C)C(=O)O)C(=O)NC(CC(=O)O)C(=O)NCC(=O)NC(CC(=O)O)C(=O)NCC(=O)NC(C(C)NC(=O)CC(=O)OC)C(=O)NC(C(C)C)C(=O)N2CCCC2C(=O)NC1C (stereo not drawn) [Compound 231] (Pentadecanoyl-D[ξAbu(βξ-NH2)][Pip][ξAsp(βξ-Me)]DGDG[X26]VP; lactam 2-C; configuration not given here) | 8 |  |
